We go through 12 compounds from article PMC10976173, “Synthesis of 5-Benzylamino and 5-Alkylamino-Substituted Pyrimido[4,5-c]quinoline Derivatives as CSNK2A Inhibitors with Antiviral Activity” (Pharmaceuticals, 2024).

Details of series [1]: method as in PMID 37077385. The conditions noted are these: Kinetic solubility; ref [6]; cited from earlier work.
Series [2] relates to DiscoverX KinomeSCAN assay panel of >400 human kinases. The conditions noted are these: cited from earlier work; for Kinases Inhibited: Number of kinases showing 90% inhibition at 1 µM in DiscoverX KINOMEscan, ref [6].
Series [3] is described as follows: Kinetic solubility in PBS pH 7.4. It counts as physicochemical. The conditions noted are these: phosphate-buffered saline, pH 7.4, aqueous buffer, kinetic from dmso stock, PBS pH 7.4, 24 h. Here is the method: Kinetic solubility assay was conducted using 10 mM DMSO stocks of compounds in phosphate-buffered saline solution (PBS) at pH 7.4 by Analiza, Inc., Cleveland, OH, USA. […] The calculated values were corrected for the background nitrogen in the media and DMSO.

Series [4] concerns Mouse Hepatitis Virus (MHV). As to the kind of experiment: microbe, parasite or virus in culture. It counts as cell-based. The conditions noted are these: Murine coronavirus, read-out: MHV IC50.
Procedure: DBT cells were plated in 96-well plates to be 80% confluent at the start of the assay. Test compounds were diluted to 30 µM in DMEM. […] Molnupiravir (10 µM) was included as a positive control. […] After 1 h, MHV-NLuc was added at an MOI of 0.1 in 50 μL DMEM so that the final concentration of the first dilution of compound was 30 μM (T = 0). After 10 h, the media was aspirated, and the cells were washed with PBS and lysed with passive lysis buffer (Promega) for 20 min at room temperature. Relative light units (RLUs) were measured using a luminometer (Promega; GloMax). Triplicate data were analyzed in GraphPad Prism version 9.5.1 to generate IC50 values (Figure S2).
For a further series, the target named is T1, CSNK2A (CSNK2A2-NLuc) (Homo sapiens, UniProt P19784).
T1 construct: expressed in transfected cells; host or cells: HEK293
As to the kind of experiment: In-cell CSNK2A target engagement by NanoBRET assay. It counts as cell-based. The conditions noted are these: for IC50: In-cell target engagement by NanoBRET assay, HEK293 cells; for Designation: active / inactive analogs with 10-fold differences in IC50.

Setting [5] is: Inhibition of MHV-NLuc in DBT cells.

Converted amounts (≈) assume the structure as drawn. Where two headings read alike, the source gives them in different places.

T1 sequence (P19784 whole entry): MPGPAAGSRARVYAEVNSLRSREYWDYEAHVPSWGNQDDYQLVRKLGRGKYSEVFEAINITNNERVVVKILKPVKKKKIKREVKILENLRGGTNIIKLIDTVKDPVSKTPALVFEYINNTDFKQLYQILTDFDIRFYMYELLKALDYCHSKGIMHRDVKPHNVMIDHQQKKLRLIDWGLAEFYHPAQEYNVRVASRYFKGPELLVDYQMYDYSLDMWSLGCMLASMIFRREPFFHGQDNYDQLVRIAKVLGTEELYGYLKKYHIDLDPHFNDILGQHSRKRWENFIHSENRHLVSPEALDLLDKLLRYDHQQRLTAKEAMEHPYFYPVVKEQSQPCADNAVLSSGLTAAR
Procedure for CSNK2A (CSNK2A2-NLuc): A transfection complex of DNA at 10 µg/mL was created, consisting of 9 µg/mL of carrier DNA (Promega, Madison, WI, USA) and 1 µg/mL of CSNK2A2-NLuc fusion DNA in Opti-MEM without serum (Gibco). FuGENE HD (Promega) was added at 30 µL/mL to form a lipid/DNA complex. The solution was then mixed and incubated at room temperature for 20 min. […] The following day, the media was removed via aspiration and replaced with 85 μL of Opti-MEM without phenol red. A total of 5 μL per well of 20×-NanoBRET Tracer K10 (Promega) at 5 μM in Tracer Dilution Buffer (Promega N291B) was added to all wells, except the “no tracer” control wells. Test compounds (10 mM in DMSO) were diluted 100× in Opti-MEM media to prepare stock solutions and evaluated at eleven concentrations. A total of 10 μL per well of the 10-fold test compound stock solutions (final assay concentration of 0.1% DMSO) was added. […] 96-well plates containing cells with NanoBRET Tracer K10 and test compounds (100 µL total volume per well) were equilibrated (37 °C/5% CO2) for 2 h. The plates were cooled to room temperature for 15 min. […] A total of 50 μL of the 3× substrate/extracellular NL inhibitor were added to each well. The plates were read within 30 min on a GloMax Discover luminometer (Promega) equipped with 450 nm BP filter (donor) and 600 nm LP filter (acceptor) using 0.3 s integration time. Raw milliBRET (mBRET) values were obtained by dividing the acceptor emission values (600 nm) by the donor emission values (450 nm) and multiplying by 1000. […] The data were first normalized and then fit using Sigmoidal, 4PL binding curve in GraphPad Prism version 9.5.1 to determine IC50 values (Figure S1).

For `O=C(O)c1ccc2c(c1)nc(Nc1ccc3ccccc3c1)c1ncncc12` [Analog-11], the “Aqueous Solubility” value in series [1] is 54 µM. Also, in series [2], the “Kinases Inhibited” value is 10/403.

With `O=C(O)c1ccc2c(c1)nc(NCC1CCC(F)(F)CC1)c1ncncc12` [Compound 4aa, 5-(((4,4-difluorocyclohexyl)methyl)amino)pyrimido[4,5-c]quinoline-8-carboxylic acid], the melting point lay within 288 to 291 °C. The solubility at 24 h in series [3] amounted to 180 µM (≈ 67 µg/mL). The 50% inhibitory concentration (IC50) in series [4] (setting [5]) turned out to be 10 µM. For the same compound, on CSNK2A (CSNK2A2-NLuc), the IC50 is 0.19 µM.

`O=C(O)c1ccc2c(c1)nc(NC1CCc3ccccc31)c1ncncc12` (stereo not drawn) [Compound 4af, 5-((2,3-dihydro-1H-inden-1-yl)amino)pyrimido[4,5-c]quinoline-8-carboxylic acid] returned a melting point of 270 to 273 °C. In series [3], this compound yielded a solubility at 24 h of 160 µM (≈ 57 µg/mL). The half-maximal inhibitory concentration (IC50) in series [4] (setting [5]) came to 22 µM. Further, at CSNK2A (CSNK2A2-NLuc), the concentration for half-maximal inhibition (IC50) was 0.23 µM and the Designation result is given as “Active”.

`O=C(O)c1ccc2c(c1)nc(NCc1ccc(Cl)cc1)c1ncncc12` [Compound 4c, 5-((4-chlorobenzyl)amino)pyrimido[4,5-c]quinoline-8-carboxylic acid] registered a melting point of 203 to 205 °C. The solubility at 24 h in series [3] was 160 µM (≈ 58.4 µg/mL). Besides, the IC50 in series [4] (setting [5]) came to 13 µM. Inhibition against CSNK2A (CSNK2A2-NLuc) was half-maximal at 0.13 µM (IC50).

As for `O=C(O)c1ccc2c(c1)nc(NCc1ccc(F)cc1)c1ncncc12` [Compound 4g, 5-((4-fluorobenzyl)amino)pyrimido[4,5-c]quinoline-8-carboxylic acid], the melting point fell in the range of 235 to 238 °C. For the same compound, the solubility at 24 h in series [3] was determined as 180 µM (≈ 62.7 µg/mL). Moreover, the IC50 in series [4] (setting [5]) stood at 10 µM. Also, the IC50 at CSNK2A (CSNK2A2-NLuc) came out at 0.15 µM.

Regarding `O=C(O)c1ccc2c(c1)nc(NCC1CCCCC1)c1ncncc12` [Compound 4t, 5-((cyclohexylmethyl)amino)pyrimido[4,5-c]quinoline-8-carboxylic acid], the melting point fell in the range of 281 to 283 °C. In series [3], this compound came in with a solubility at 24 h of 180 µM (≈ 60.6 µg/mL). Besides, in series [4] (setting [5]), the IC50 is 13 µM. Further, at CSNK2A (CSNK2A2-NLuc), the midpoint of inhibition, the IC50, lay at 0.14 µM and the Designation entry was “Active”.

For `O=C(O)c1ccc2c(c1)nc(NCC1CCCCCC1)c1ncncc12` [Compound 4u, 5-((cycloheptylmethyl)amino)pyrimido[4,5-c]quinoline-8-carboxylic acid], the melting point was in the range of 280 to 283 °C. The compound also came in with a solubility at 24 h in series [3] of 150 µM (≈ 52.6 µg/mL). In addition, the IC50 in series [4] (setting [5]) was determined as 18 µM. The IC50 at CSNK2A (CSNK2A2-NLuc) was determined as 0.2 µM.

On to `O=C(O)c1ccc2c(c1)nc(NCC13CCC(CC1)C3)c1ncncc12` [Compound 4w, 5-((bicyclo[2.2.1]heptan-1-ylmethyl)amino)pyrimido[4,5-c]quinoline-8-carboxylic acid], for which the melting point fell in the range of 291 to 292 °C. For the same compound, the solubility at 24 h in series [3] turned out to be 190 µM (≈ 66.2 µg/mL). Moreover, the IC50 in series [4] (setting [5]) came out at 17 µM. The 50% inhibitory concentration (IC50) on CSNK2A (CSNK2A2-NLuc) came out at 0.17 µM.

In turn, `O=C(O)c1ccc2c(c1)nc(NCC13CC4CC(CC(C4)C1)C3)c1ncncc12` [Compound 4x, 5-((((3r,5r,7r)-adamantan-1-yl)methyl)amino)pyrimido[4,5-c]quinoline-8-carboxylic acid] yielded a melting point of 292 to 296 °C. Also, the solubility at 24 h in series [3] is around 10 µM (≈ 3.88 µg/mL). The half-inhibitory concentration (IC50) in series [4] (setting [5]) was above 30 µM. The compound further returned a half-maximal inhibitory concentration (IC50) on CSNK2A (CSNK2A2-NLuc) of 0.14 µM.

With `CCC(=O)Nc1cc(Nc2cc(NC3CC3)n3ncc(C#N)c3n2)ccc1C` [SGC-CK2-1], the “Kinases Inhibited” value in series [2] is recorded as 3/403. Moreover, the “inhibition of CSNK2A1, CSNK2A2, and STK17B” value in series [2] (at 1 µM, only these kinases of the panel, ref [3]) is listed as 90%.

Regarding `O=C(O)c1ccc2c(c1)nc(NCc1ccccc1)c1ncncc12` [SGC-CK2-2, reference compound], the “Aqueous Solubility” value in series [1] is given as 210 µM. Further, the IC50 in series [4] came to 15 µM.

On to `O=C(O)c1ccc2c(c1)nc(Nc1cccc(Cl)c1)c1ccncc12` [silmitasertib, 5-(3-chlorophenylamino)benzo[c][2,6]naphthyridine-8-carboxylic acid], for which the “Aqueous Solubility” value in series [1] is 280 µM. Moreover, the “Kinases Inhibited” value in series [2] was 28/403.

By Aqueous Solubility is commonly meant how much of the substance goes into solution per volume. The solubility is the dissolved amount per volume that the medium holds. As usually defined, the IC50 is the concentration that gives 50% inhibition. What is called melting point is the temperature of the solid-liquid transition.
